Data reported in the supplement of paper PMC4862054.

How the values were obtained:
Assay in all cases: normalised response (% of control), CellTiter-Glo; higher = more viable cells (100 = DMSO, 0 = benzethonium chloride kill control)
Conditions in all cases: incubation time: 72 h
BT-474 = tested on: BT-474
In short: (§1)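 Two readouts were taken after 72 h: CellTox Green fluorescence (485/520 nm) first, then CellTiter-Glo luminescence after 10 min at room temperature. Breast cancer cell lines had been seeded as 20 µl suspension into 384-well plates holding compound at 5 concentrations in 10-fold steps across a compound-specific 10,000-fold range. Each value is a normalised signal at a single concentration, with plates scaled to 0.1 % DMSO (100) and a positive kill control (0).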

BT-549 = tested on: BT-549
In short: as §1

CAL-120 = tested on: CAL-120
In short: as §1

CAL-148 = tested on: CAL-148
In short: as §1

CAL-51 = tested on: CAL-51
In short: as §1

CAL-85-1 = tested on: CAL-85-1
In short: as §1

DU-4475 = tested on: DU-4475
In short: as §1

HCC1599 = tested on: HCC1599
In short: as §1

HCC1937 = tested on: HCC1937
In short: as §1

HDQ-P1 = tested on: HDQ-P1
In short: as §1

Hs578T = tested on: Hs578T
In short: as §1

MCF-10A = tested on: MCF-10A
In short: as §1

MDA-MB-231 = tested on: MDA-MB-231
In short: as §1

MDA-MB-436 = tested on: MDA-MB-436
In short: as §1

MDA-MB-453 = tested on: MDA-MB-453
In short: as §1

MDA-MB-468 = tested on: MDA-MB-468
In short: as §1

MFM-223 = tested on: MFM-223
In short: as §1

SK-BR-3 = tested on: SK-BR-3
In short: as §1

Structure (SMILES) | normalised response (BT-474) | normalised response (BT-549) | normalised response (CAL-120) | normalised response (CAL-148) | normalised response (CAL-51) | normalised response (CAL-85-1) | normalised response (DU-4475) | normalised response (HCC1599) | normalised response (HCC1937) | normalised response (HDQ-P1) | normalised response (Hs578T) | normalised response (MCF-10A) | normalised response (MDA-MB-231) | normalised response (MDA-MB-436) | normalised response (MDA-MB-453) | normalised response (MDA-MB-468) | normalised response (MFM-223) | normalised response (SK-BR-3)
COCC1(CO)C(=O)C2CCN1CC2 (stereo not given) [Prima-1 Met] (1000 nM) | 102% | 96.8% | 99.3% | 101% | 108% | 105% | 105% | 106% | 92.2% | 96.3% | 101% | 97.8% | 104% | 106% | 109% | 105% | 103% | 101%
CNC(=O)c1cc(Oc2ccc(NC(=O)Nc3ccc(Cl)c(C(F)(F)F)c3)c(F)c2)ccn1 [Regorafenib] (1000 nM) | 91.8% | 105% | 94.9% | 99.1% | 65.6% | 109% | 97.3% | 102% | 103% | 90.9% | 93.9% | 90.6% | 99% | 101% | 97.2% | 105% | 73.4% | 102%
COc1cc2ncnc(Nc3ccc(F)c(Cl)c3)c2cc1OCCCN1CCOCC1 [Gefitinib] (1000 nM) | 101% | 97.7% | 103% | 80% | 103% | 58.4% | 99.7% | 104% | 87.9% | 69% | 106% | 34.2% | 101% | 103% | 95.2% | 75.3% | 100% | 51.9%
O=C(/C=C/c1cccc(S(=O)(=O)Nc2ccccc2)c1)NO [Belinostat] (1000 nM) | 23.1% | 59% | 39.8% | 28.5% | 31.7% | 44.5% | 23.1% | 44.5% | 69.9% | 68.8% | 50.6% | 55.6% | 36% | 51.9% | 14.4% | 31.8% | 34.2% | 15.7%
NC(=O)c1ccc(I)c([N+](=O)[O-])c1 [Iniparib] (1000 nM) | 90% | 101% | 93.2% | 83.3% | 126% | 94.5% | 92.3% | 105% | 97.7% | 97% | 94.6% | 82% | 90% | 88.2% | 89.2% | 83.8% | 81.3% | 78%
C=C1C[C@@H]2[C@H](CC[C@]3(C)C(=O)CC[C@@H]23)[C@@]2(C)C=CC(=O)C=C12 [Exemestane] (1000 nM) | 103% | 92.5% | 102% | 97.7% | 80.5% | 98.3% | 105% | 115% | 103% | 99.3% | 100% | 112% | 106% | 102% | 105% | 101% | 110% | 108%
COc1cc(OC2CCN(C)CC2)ccc1Nc1ncc2c(n1)n(C1CCCC1)c(=O)n2C [AZ 3146] (1000 nM) | 96.5% | 104% | 98% | 94.5% | 74.5% | 98.2% | 94.6% | 112% | 97.2% | 98.4% | 100% | 92.5% | 96.7% | 110% | 117% | 104% | 98.2% | 74.6%
CN(C)c1nc(N(C)C)nc(N(C)C)n1 [Altretamine] (1000 nM) | 101% | 103% | 99.5% | 95.2% | 108% | 102% | 98.9% | 118% | 99.4% | 105% | 110% | 103% | 100% | 99.3% | 115% | 107% | 103% | 107%
CCc1c2c(nc3ccc(OC(=O)N4CCC(N5CCCCC5)CC4)cc13)-c1cc3c(c(=O)n1C2)COC(=O)[C@]3(O)CC [Irinotecan] (1000 nM) | 91% | 78.2% | 83.7% | 66.3% | 96.6% | 104% | 82.1% | 109% | 91.8% | 95.5% | 101% | 88.3% | 98.1% | 64.5% | 152% | 82% | 104% | 78.8%
Oc1ccc2c(c1)CC[C@H](c1ccccc1)[C@@H]2c1ccc(OCCN2CCCC2)cc1 [Lasofoxifene] (100 nM) | 104% | 95.8% | 107% | 105% | 103% | 97.6% | 95.7% | 107% | 96% | 99.4% | 106% | 114% | 107% | 107% | 104% | 107% | 105% | 113%
